According to patent US20060014835A1, “Therapeutic agent for chronic obstructive pulmonary disease” (priority 2002, published 2006):

Tested on: rat
Assay: single oral administration toxicity to rat (minimum lethal dose)
Format: in vivo
Method: The toxicity of the compounds of the present invention is very low and therefore, the compounds may be considered safe for pharmaceutical use. For example, a minimum of lethal dose of N-hydroxy-5-hydroxy-2(S)-methyl-4(S) (4-phenoxybenzoyl)aminopentanamide and N-hydroxy-5-ethoxymethyloxy-2(S)-methyl-4(S)-(4-phenoxybenzoyl)aminopentanamide by single oral administration to rat was 2000 mg/kg.

Structure (SMILES)	minimum of lethal dose [mg/kg]
C[C@@H](C[C@@H](CO)NC(=O)c1ccc(Oc2ccccc2)cc1)C(=O)NO [Compound (1), N-hydroxy-5-hydroxy-2 (S)-methyl-4(S)-(4-phenoxybenzoyl) aminopentanamide]	2000
CCOCOC[C@H](C[C@H](C)C(=O)NO)NC(=O)c1ccc(Oc2ccccc2)cc1 [Compound (2), N-hydroxy 5-ethoxymethyloxy-2(S)-methyl-4(S)-(4-phenoxybenzoyl) aminopentanamide]	2000
